# Earlier results as cited in US11291812B2, “Sinus delivery of sustained release therapeutics” (Intersect ENT, Inc., priority 2003, dated 2022).
# Tested on: sinusitis
# Conditions: ampicillin delivered from a poly(lactic-co-glycolic)acid (PLGA) film placed in rabbit maxillary sinus
smiles,measurement,value
CC1(C)S[C@@H]2[C@H](NC(=O)[C@H](N)c3ccccc3)C(=O)N2[C@H]1C(=O)O [ampicillin],clinical signs of sinusitis,improved
